Test results: article PMC7238120, “Strong and Selective Inhibitory Effects of the Biflavonoid Selamariscina A against CYP2C8 and CYP2C9 Enzyme Activities in Human Liver Microsomes” (Pharmaceutics, 2020)
Like-named read-outs stand apart in the source and are kept apart here.

How the values were obtained:
CYP2E1 = biological target: T1, CYP2E1 (Homo sapiens, UniProt P05181); experiment: Inhibition of CYP2E1 (chlorzoxazone) activity in pooled human liver microsomes; type: in vitro ADME; settings: substrate chlorzoxazone 50 µM; pooled HLMs; read-out: IC50, P450 2E1
T1 construct: incubation mixtures containing pooled human liver microsomes (HLMs, XTreme 200, XenoTech); tissue XenoTech XTreme 200; host or cells: pooled human liver microsomes
Method: The inhibitory potential of the five biflavonoids on the metabolism of nine P450 probe substrates was evaluated using previously developed methods with minor modifications. Biflavonoids were dissolved in methanol. The final concentration of methanol in the incubation mixture was 1.0% (v/v). We used these P450 probe substrates: phenacetin for CYP1A2, coumarin for CYP2A6, bupropion for CYP2B6, amodiaquine for CYP2C8, diclofenac for CYP2C9, omeprazole for CYP2C19, dextromethorphan for CYP2D6, chlorzoxazone for CYP2E1 and midazolam for CYP3A (Table 1). The incubation mixtures containing pooled human liver microsomes (HLMs, XTreme 200, XenoTech), P450 probe substrates, and inhibitor (0~20 µM) were pre-incubated at 37 °C for 5 min. The concentration range of the inhibitor varied (0, 0.002, 0.005, 0.02, 0.05, and 0.2 µM for CYP2C8; 0, 0.02, 0.05, 0.2, 0.5, and 2 µM for CYP2C9; 0, 0.5, 2, 5, 10, and 20 µM for other P450 isoforms). After pre-incubation, a reduced nicotinamide adenine dinucleotide phosphate (NADPH) generation system containing 1 unit/ml G6PDH, 1.3 mM β- nicotinamide adenine dinucleotide phosphate (β- NADP^+), 3.3 mM MgCl2, and 3.3 mM G6P was added to initiate a reaction, and further incubated for 10 min at 37 °C. The reaction was stopped by adding 50 μL of ice-cold acetonitrile containing 7 nM trimipramine (internal standard, IS). After centrifugation at 18,000 g (5 min, 4 °C), aliquots of supernatants were analyzed by LC–MS/MS (Shimadzu LCMS 8060 system, Shimadzu, Kyoto, Japan). All microsomal incubations were conducted in triplicate.
All metabolites and the IS were separated on a Kinetex XB-C18 column (100 × 2.10 mm, 2.6 μm, 100 Å; Phenomenex, Torrance, CA, USA) and analyzed using a Shimadzu LCMS 8060 triple-quadrupole mass spectrometer coupled with a Nexera X2 ultra high-performance liquid chromatography system (Shimadzu, Kyoto, Japan) equipped with an electrospray ionization interface. The mobile phase consisted of 0.1% formic acid in water (A) and 0.1% formic acid in acetonitrile (B). The elution condition was set as 8% B (0–0.5 min), 8%→60% B (0.5–5 min), 60% B (5–6 min), 60%→8% B (6–6.1 min) and 8% B (6.1–9 min) for the analysis of metabolites of P450 probe substrates and set as 0%→40% B (0–1 min), 40%→50% B (1–5 min), 50%→0% B (5–5.1 min), and 0% B (5.1–8 min) for the analysis of metabolites of UGT probe substrates. The flow rate was 0.2 mL/min. Electrospray ionization was performed in positive-ion mode at 4000 V or in negative-ion mode at −3500 V. The optimum operating conditions were determined as follows: vaporizer temperature, 300 °C; capillary temperature, 350 °C; collision gas (argon) pressure, 1.5 mTorr. Quantitation was conducted in selected reaction monitoring (SRM) modes with the precursor-to-product ion transition for each metabolite (Table 1 and Table 2).
We analyzed the data with Shimadzu LabSolution LC–MS software. The IC50 values were calculated by WinNonlin software (Pharsight, Mountain View, CA, USA). The type of inhibition and the apparent kinetic parameters for inhibitory activity (Ki) were determined by following several criteria: visual inspection of Dixon plots, Lineweaver–Burk double reciprocal plots, and secondary plots of Lineweaver–Burk plots versus biflavonoid concentrations, the size of the sum of squares of the residuals, Akaike Information Criteria values, the S.E. and 95% confidence interval of the parameter estimates from the nonlinear regression analysis using the WinNonlin software. The models tested included competitive, competitive partial, noncompetitive, noncompetitive partial, uncompetitive, uncompetitive partial, and mixed-type inhibition.

CYP2C9 = CYP2C9 (Homo sapiens, UniProt P11712); experiment: Inhibition of CYP2C9-catalyzed diclofenac 4-hydroxylation in pooled human liver microsomes; type: in vitro ADME; parameters: incubation mixtures containing pooled human liver microsomes (HLMs, XTreme 200, XenoTech); tissue XenoTech XTreme 200; host or cells: pooled human liver microsomes
Method: The inhibitory potential of the five biflavonoids on the metabolism of nine P450 probe substrates was evaluated using previously developed methods with minor modifications. Biflavonoids were dissolved in methanol. The final concentration of methanol in the incubation mixture was 1.0% (v/v). We used these P450 probe substrates: phenacetin for CYP1A2, coumarin for CYP2A6, bupropion for CYP2B6, amodiaquine for CYP2C8, diclofenac for CYP2C9, omeprazole for CYP2C19, dextromethorphan for CYP2D6, chlorzoxazone for CYP2E1 and midazolam for CYP3A (Table 1). […] The reaction was stopped by adding 50 μL of ice-cold acetonitrile containing 7 nM trimipramine (internal standard, IS). After centrifugation at 18,000 g (5 min, 4 °C), aliquots of supernatants were analyzed by LC-MS/MS (Shimadzu LCMS 8060 system, Shimadzu, Kyoto, Japan). All microsomal incubations were conducted in triplicate. We used HLMs to determine the mechanisms and constants (Ki values) for […] A inhibition of CYP1A2, CYP2B6, CYP2C8, CYP2C9 and CYP3A. […] The substrates were used at concentrations approximately near to their respective Km values. […] The other conditions were the same as in the cytochrome P450 inhibition study. […] Phenomenex, Torrance, CA, USA) and analyzed using a Shimadzu LCMS 8060 triple-quadrupole mass spectrometer coupled with a Nexera X2 ultra high-performance liquid chromatography system (Shimadzu, Kyoto, Japan) equipped with an electrospray ionization interface. The mobile phase consisted of 0.1% formic acid in water (A) and 0.1% formic acid in acetonitrile (B). […] The flow rate was 0.2 mL/min. Electrospray ionization was performed in positive-ion mode at 4000 V or in negative-ion mode at -3500 V. […] Quantitation was conducted in selected reaction monitoring (SRM) modes with the precursor-to-product ion transition for each metabolite (Table 1 and Table 2). We analyzed the data with Shimadzu LabSolution LC-MS software. The IC50 values were calculated by WinNonlin software (Pharsight, Mountain View, CA, USA). The type of inhibition and the apparent kinetic parameters for inhibitory activity (Ki) were determined by following several criteria: visual inspection of Dixon plots, Lineweaver-Burk double reciprocal plots, and secondary plots of Lineweaver-Burk plots versus biflavonoid concentrations, the size of the sum of squares of the residuals, Akaike Information Criteria values, the S.E. and 95% confidence interval of the parameter estimates from the nonlinear regression analysis using the WinNonlin software. The models tested included competitive, competitive partial, noncompetitive, noncompetitive partial, uncompetitive, uncompetitive partial, and mixed-type inhibition.

[1] = substrate diclofenac 10 µM, pooled HLMs, read-out: IC50, P450 2C9

Chain of CYP2C9 (P11712 whole entry): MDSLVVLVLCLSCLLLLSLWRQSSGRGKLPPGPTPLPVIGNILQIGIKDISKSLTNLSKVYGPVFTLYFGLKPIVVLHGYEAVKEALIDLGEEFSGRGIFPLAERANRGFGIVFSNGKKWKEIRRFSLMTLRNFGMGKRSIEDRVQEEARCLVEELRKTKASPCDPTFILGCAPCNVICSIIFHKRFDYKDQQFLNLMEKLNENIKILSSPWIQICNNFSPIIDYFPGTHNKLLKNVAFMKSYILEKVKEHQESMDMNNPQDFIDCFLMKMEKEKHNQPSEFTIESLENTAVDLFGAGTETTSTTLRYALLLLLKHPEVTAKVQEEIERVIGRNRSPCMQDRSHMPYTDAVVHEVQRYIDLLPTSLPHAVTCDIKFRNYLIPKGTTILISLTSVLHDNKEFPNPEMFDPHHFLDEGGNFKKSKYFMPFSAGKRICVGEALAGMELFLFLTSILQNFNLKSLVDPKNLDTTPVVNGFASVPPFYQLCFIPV
T1 sequence (P05181 whole entry): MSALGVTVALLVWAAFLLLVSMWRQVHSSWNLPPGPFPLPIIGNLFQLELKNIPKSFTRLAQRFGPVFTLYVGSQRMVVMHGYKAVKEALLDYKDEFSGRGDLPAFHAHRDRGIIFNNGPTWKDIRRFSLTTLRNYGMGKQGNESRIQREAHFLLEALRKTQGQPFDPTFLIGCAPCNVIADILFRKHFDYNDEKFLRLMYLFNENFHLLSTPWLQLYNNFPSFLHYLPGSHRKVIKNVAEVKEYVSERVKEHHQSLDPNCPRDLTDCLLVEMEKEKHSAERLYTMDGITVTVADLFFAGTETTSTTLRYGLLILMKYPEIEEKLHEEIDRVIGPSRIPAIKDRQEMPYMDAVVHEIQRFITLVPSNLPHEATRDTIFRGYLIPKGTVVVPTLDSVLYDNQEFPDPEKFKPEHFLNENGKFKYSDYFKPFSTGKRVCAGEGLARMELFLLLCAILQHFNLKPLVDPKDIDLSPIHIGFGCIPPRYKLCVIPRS

Structure (SMILES)	IC50 (CYP2E1) [nM]	IC50 (CYP2C9; [1]) [nM]	Mode of Inhibition, CYP2C9 diclofenac (CYP2C9; HLMs)	Ki (CYP2C9; HLMs, average ± standard error, triplicate) [nM]	inhibition at 10 min, 0.5 µM (CYP2C9; human, pooled human liver microsomes, probe diclofenac, inhibitor 0.5 μM, pooled HLMs) [%]	inhibition at 10 min, 5 µM (CYP2C9; human, pooled human liver microsomes, probe diclofenac, inhibitor 5 μM, pooled HLMs) [%]	IC50 (CYP2C9) [nM]
O=c1cc(-c2ccc(O)c(-c3c(O)cc4oc(-c5ccc(O)cc5)cc(=O)c4c3O)c2)oc2cc(O)cc(O)c12 [robustaflavone]	2900	150	–	–	–	–	–
O=C1CC(c2cc(-c3c(O)ccc4c(=O)cc(-c5ccc(O)cc5)oc34)c(O)cc2O)Oc2cc(O)cc(O)c21 (stereo not shown) [selamariscina A]	> 20000	47	Competitive	32 ± 7	88.6	–	–
CC(C)(O)c1ccccc1CC[C@@H](SCC1(CC(=O)O)CC1)c1cccc(/C=C/c2ccc3ccc(Cl)cc3n2)c1 [montelukast, reference compound]	> 50000	9730	–	–	–	31	–
O=c1cc(-c2ccc(O)c(-c3c(O)cc(O)c4c(=O)cc(-c5ccc(O)cc5)oc34)c2)oc2cc(O)cc(O)c12 [amentoflavone]	3300	–	–	–	–	–	150
O=c1cc(-c2ccc(O)c(-c3c(-c4ccc(O)cc4)oc4cc(O)cc(O)c4c3=O)c2)oc2cc(O)cc(O)c12 [taiwaniaflavone]	6000	200	–	–	–	–	–
O=c1cc(-c2ccc(O)cc2)oc2c(-c3c(O)cc(O)c4c(=O)cc(-c5ccc(O)cc5)oc34)c(O)cc(O)c12 [cupressuflavone]	2300	210	–	–	–	–	–
